Measurements: PMC9182202 (Molecules, 2022)
Values after ≈ are worked out from the molar mass of the structure shown.

Tests used:
MTT cytotoxicity test = conditions: bovine, MDBK adherent cells
Experimental: (§1) The MTT (3-[4,5-dimethylthazol-2-yl]-2,5-diphenyltetrazolium bromide) test was performed using MDBK adherent cells.

MDBK cells = test: MTT cytotoxicity test; conditions: MDBK, MTT, concentration range 0.019–1.56 μg/mL, 72 h
Experimental: as §1

BChE (horse serum) = molecular target: T1, BChE (horse serum) (Equus caballus, UniProt P81908); test: biochemical; assay type: biochemical
T1 construct: purchased Sigma-Aldrich Corporation; host or cells: horse serum
Experimental: (§2) The enzyme activity was measured in vitro via a modified spectrophotometric method developed by Ellman et al.. Acetylthiocholine iodide (ATCh) and butyrylthiocholine chloride (BTCh) were used as substrates for the AChE and BChE enzymes, respectively. Ellman reagent, i.e., 5,5-dithiobis (2-nitro) benzoic acid (DTNB), was used to produce the chromogenic indicator for the measurement of the ChE activity using a SpectraMax microplate spectrophotometer (Molecular Devices, CA, USA), as reported previously.
(§3) The IC50 values were calculated using the EZ-Fit program (Perrella Scientific Inc., Amherst, MA, USA). Lineweaver–Burk plots, Dixon plots, and their secondary replots were used to observe the effects of the compound on the values of Km and Vmax. Dixon plots, Lineweaver–Burk plots, and the secondary replots of Lineweaver–Burk plots were used to determine Ki values using initial velocities. […] The graphical analysis of the Dixon plots, Lineweaver–Burk plots, and their secondary plots was used to determine the inhibition type.

β-glucuronidase = test: Selectivity screen: β-glucuronidase inhibition; assay type: biochemical
phosphodiesterase = tested on: phosphodiesterase
Experimental: (§4) To test the selectivity of the compound, Sarcorucinine-D was also tested for the inhibition of several other enzymes such as phosphodiesterase, α-glucosidase, β-glucuronidase, and urease enzymes. The assays of these enzymes are reported elsewhere.

α-glucosidase = tested on: α-glucosidase
Experimental: as §4

[1] = tested on: voltage-dependent Ca^2+ channels; test: Ca2+ concentration-response curves in Ca2+-free medium, rabbit jejunum; conditions: Ca^2+-free medium, Sarcorucinine-D 10–30 µg/mL, verapamil 0.05–0.5 µg/mL
Experimental: Another set of confirmatory experiments was also performed to be sure of any potential CCB activity. For this, the regular Tyrode’s physiological salt solution in which the tissues were originally immersed was removed. The baths were filled with a Ca^2+–free Tyrode’s solution with EDTA (0.1 mM). The tissues were left in this solution for half an hour. Later, another replacement was carried out using K^+-rich and Ca^2+-free Tyrode’s solution. The tissues were again left to stabilize for half an hour, and then, the control concentration–response curves of Ca^2+ were constructed and recorded. These control Ca^2+ concentration–response curves were duplicated after pretreatment of the tissues for one hour with different concentrations of Sarcorucinine-D. Any possible CCB effect of Sarcorucinine-D would tend to displace the Ca^2+ concentration–response curves to the right-hand side. The effects of Sarcorucinine-D were compared to those of a standard CCB, verapamil.

[2] = molecular target: T2, Torpedo californica AChE (TcAChE) (Tetronarce californica, UniProt P04058); test: biochemical; conditions: mean ± SEM of three experiments
T2 construct: purchased Sigma-Aldrich Corporation
Experimental: as §2, §3

urease = test: Selectivity screen: urease inhibition; assay type: biochemical

T1 sequence (P81908 whole entry): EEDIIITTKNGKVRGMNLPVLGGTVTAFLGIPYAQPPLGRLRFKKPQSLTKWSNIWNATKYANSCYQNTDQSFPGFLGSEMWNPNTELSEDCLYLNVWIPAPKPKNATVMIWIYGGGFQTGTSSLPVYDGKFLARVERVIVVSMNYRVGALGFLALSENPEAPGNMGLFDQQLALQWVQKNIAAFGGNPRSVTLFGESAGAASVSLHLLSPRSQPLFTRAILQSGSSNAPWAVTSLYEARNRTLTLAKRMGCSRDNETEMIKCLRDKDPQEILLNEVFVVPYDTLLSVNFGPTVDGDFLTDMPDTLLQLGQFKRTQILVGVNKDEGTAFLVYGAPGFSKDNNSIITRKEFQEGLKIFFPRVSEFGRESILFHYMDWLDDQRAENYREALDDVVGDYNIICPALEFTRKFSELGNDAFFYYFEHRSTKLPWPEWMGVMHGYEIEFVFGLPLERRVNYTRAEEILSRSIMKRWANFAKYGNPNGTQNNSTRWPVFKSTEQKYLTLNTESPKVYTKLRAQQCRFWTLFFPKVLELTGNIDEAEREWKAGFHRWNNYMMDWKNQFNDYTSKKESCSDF
T2 sequence (P04058 22-586): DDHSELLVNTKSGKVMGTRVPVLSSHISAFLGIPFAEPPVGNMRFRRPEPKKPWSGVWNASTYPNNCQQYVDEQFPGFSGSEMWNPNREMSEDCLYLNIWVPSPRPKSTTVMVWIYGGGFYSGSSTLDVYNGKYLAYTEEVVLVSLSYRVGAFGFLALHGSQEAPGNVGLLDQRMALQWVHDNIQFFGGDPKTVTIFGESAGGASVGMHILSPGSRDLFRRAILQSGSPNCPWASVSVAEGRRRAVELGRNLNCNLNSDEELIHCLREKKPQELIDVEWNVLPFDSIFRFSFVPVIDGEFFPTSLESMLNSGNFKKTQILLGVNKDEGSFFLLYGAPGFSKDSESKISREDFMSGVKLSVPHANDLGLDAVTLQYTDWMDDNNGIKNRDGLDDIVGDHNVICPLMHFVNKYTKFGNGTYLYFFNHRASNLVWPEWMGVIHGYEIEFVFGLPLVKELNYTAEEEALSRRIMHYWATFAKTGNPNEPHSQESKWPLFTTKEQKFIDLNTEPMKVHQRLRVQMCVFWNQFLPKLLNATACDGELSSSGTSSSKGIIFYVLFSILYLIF

| SMILES | IC50 at 72 h (MTT cytotoxicity test) | Cytotoxic effect at low concentrations (MDBK cells) | IC50 (BChE (horse serum)) | Ki (BChE (horse serum)) | Selectivity toward BChE over AChE (BChE (horse serum); from the data of Table 1) | Selectivity screen result, β-glucuronidase (β-glucuronidase) | Selectivity screen result, phosphodiesterase (phosphodiesterase) | Selectivity screen result, α-glucosidase (α-glucosidase) | Effect on CaCl2 concentration–response curves [1] | Ki ([2]; from Dixon plot, Lineweaver–Burk plot and secondary replots, read-out: Acetylcholinesterase Ki) | IC50 ([2]; read-out: Acetylcholinesterase IC50) | Selectivity screen result, urease (urease) |
| --- | --- | --- | --- | --- | --- | --- | --- | --- | --- | --- | --- | --- |
| CC(C1CCC2C3CCC4CC(O)CCC4(C)C3CCC21C)N(C)C (stereo not shown) [Sarcorucinine-D] | 2.24 µg/mL (≈ 6.44 µM) | No cytotoxic effect | 8.87 ± 0.56 µM | 4.66 ± 0.3 µM | approximately 22 times | selective ChE inhibitor | selective ChE inhibitor | selective ChE inhibitor | displaced the CaCl2 curves to the right | 103 ± 6.67 µM | 42.9 ± 3.13 µM | selective ChE inhibitor |
| COc1ccc(CCN(C)CCCC(C#N)(c2ccc(OC)c(OC)c2)C(C)C)cc1OC (stereo not shown) [verapamil, reference compound] | – | – | – | – | – | – | – | – | displaced the CaCl2 curves to the right | – | – | – |
